Some test systems named below: RXF 393; MDA-MB-435; EKVX; SK-MEL-28; SF-268; UO-31; CAKI-1; HOP-62; UACC-62; MDA-N; K562; A549; HOP-92; SK-MEL-5; NCI-H226; SN12C; HCT-15; MCF7; MOLT-4.
Experiment in all cases: growth of human tumour cells (NCI), 48 h

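All cell lines were grown in 96-well plates and treated with compound for 48 hours. The concentration for 50% growth inhibition is given as GI50.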 Activity calls are given as the source filed them. No stated cut-off is given here; in the data, active = GI50 up to about 1.1 µM and inactive = higher.

In the case of `O=C(CON1C(=O)c2ccccc2C1=O)c1ccccc1`, the GI50 in the assay with RXF 393 was 55.8 µM (inactive); in the assay on MDA-MB-435 it was 42 µM (inactive); in the assay with EKVX, > 100 µM (inactive); in the assay on SK-MEL-28, > 100 µM (inactive); in the assay with SF-268, > 100 µM (inactive); in the assay with UO-31, 21.3 µM (inactive). The GI50 in the assay on CAKI-1 is 19.1 µM (inactive); in the assay on HOP-62, > 100 µM (inactive); in the assay with UACC-62 it was > 100 µM (inactive); in the assay with MDA-N, > 100 µM (inactive); in the assay on K562 it was 45.9 µM (inactive); in the assay on A549, > 100 µM (inactive). In addition, the GI50 with HOP-92 is 58.6 µM (inactive); in the assay on SK-MEL-5, > 100 µM (inactive); with NCI-H226, > 100 µM (inactive); in the assay with SN12C, 47.1 µM (inactive); in the assay on HCT-15, over 100 µM; in the assay with MCF7, 40.1 µM (inactive).

As for `O=C(O)CCCC#CCCCC(=O)O`, the GI50 in the assay on RXF 393, in the assay on MDA-MB-435, in the assay with EKVX, in the assay with SK-MEL-28, in the assay with SF-268 and with UO-31 was > 100 µM (inactive) in each case. The GI50 in the assay on CAKI-1, in the assay with HOP-62, in the assay on UACC-62, in the assay on MDA-N, with K562 and in the assay with A549 was > 100 µM (inactive) throughout. Further, the GI50 in the assay with HOP-92 was > 100 µM (inactive); with SK-MEL-5, > 100 µM (inactive); in the assay with SN12C, > 100 µM (inactive); in the assay on HCT-15 it was over 100 µM; in the assay on MCF7, > 100 µM (inactive).

For the compound `C[C@H](C(=O)N1C(=O)O[C@@H](c2ccccc2)[C@H]1C)[C@H](c1ccccc1)N(Cc1ccccc1)OC(=O)c1ccccc1`, the GI50 with RXF 393 was 73.8 µM (inactive); in the assay on MDA-MB-435, 49.4 µM (inactive); with SK-MEL-28 it was > 100 µM (inactive); with SF-268 it was 33.8 µM (inactive); with UO-31, 34.8 µM (inactive); in the assay on CAKI-1 it was 77.1 µM (inactive). In addition, the GI50 in the assay with HOP-62 is 18.9 µM (inactive); in the assay with UACC-62, 28.6 µM (inactive); with MDA-N it was 48.9 µM (inactive); in the assay with K562, 31.6 µM (inactive); with MOLT-4, 22.1 µM (inactive); in the assay with A549, 32.9 µM (inactive). For the same compound, the GI50 was 24.4 µM (inactive) in the assay on HOP-92; 21 µM (inactive) with SK-MEL-5; 38.4 µM (inactive) in the assay on NCI-H226; 80.7 µM (inactive) in the assay on SN12C; 29.6 µM in the assay with HCT-15; 30.1 µM (inactive) with MCF7.

Consider `COc1cc(/C=C2\CCC(C)/C(=C\c3cc(OC)c(OC)c(OC)c3)C2=O)cc(OC)c1OC` (stereo not drawn), for which the GI50 with RXF 393 was 2.55 µM (inactive); in the assay on MDA-MB-435 it was 3.03 µM (inactive); in the assay with EKVX, 3.21 µM (inactive); in the assay on SK-MEL-28, 4.35 µM (inactive); in the assay with SF-268 it was 3.37 µM (inactive); in the assay on UO-31, 3.99 µM (inactive). Also, the GI50 is 2.99 µM (inactive) in the assay on CAKI-1; 3.63 µM (inactive) with HOP-62; 1.82 µM (inactive) with UACC-62; 2.96 µM (inactive) in the assay on MDA-N; 2.69 µM (inactive) in the assay with K562; 2.79 µM (inactive) in the assay with A549. In addition, the GI50 with HOP-92 is > 100 µM (inactive); in the assay with SK-MEL-5 it was 2.21 µM (inactive); in the assay on SN12C, 3.56 µM (inactive); in the assay with HCT-15, 1.99 µM; with MCF7, 2.89 µM (inactive).

With `O=C(CN1c2ccccc2Sc2ccccc21)N1CCNCC1`, the GI50 was 97.5 µM (inactive) with RXF 393; > 100 µM (inactive) in the assay on MDA-MB-435; > 100 µM (inactive) in the assay on EKVX; > 100 µM (inactive) with SK-MEL-28; > 100 µM (inactive) with SF-268; 95.5 µM (inactive) with UO-31. Also, the GI50 in the assay on HOP-62 was > 100 µM (inactive); with UACC-62 it was > 100 µM (inactive); in the assay on MDA-N, > 100 µM (inactive); in the assay with K562, > 100 µM (inactive); in the assay with MOLT-4 it was 64.7 µM (inactive); with A549, > 100 µM (inactive). For the same compound, the GI50 in the assay with HOP-92 is 29.5 µM (inactive); in the assay with SK-MEL-5, 40.3 µM (inactive); with NCI-H226, 78.7 µM (inactive); in the assay with SN12C, > 100 µM (inactive); with HCT-15, over 100 µM; with MCF7, > 100 µM (inactive).

Take `Cc1[nH]n(-c2nc(O)c(-c3ccccc3)c(=O)[nH]2)c(=O)c1CCO`: the GI50 in the assay on RXF 393, with MDA-MB-435, with EKVX, with SK-MEL-28, with SF-268 and with UO-31 was > 100 µM (inactive) in each case. Besides, the GI50 with CAKI-1, in the assay on UACC-62, with MDA-N, with K562, with MOLT-4 and in the assay with A549 was > 100 µM (inactive) each time. Besides, the GI50 in the assay with HOP-92 was > 100 µM (inactive); in the assay with SK-MEL-5, > 100 µM (inactive); in the assay on NCI-H226, > 100 µM (inactive); in the assay on SN12C it was > 100 µM (inactive); in the assay on HCT-15 it was over 100 µM; in the assay on MCF7 it was > 100 µM (inactive).

On to `COc1c(C)c(C/C=C(\C)CC/C=C(\C)CCC=C(C)C)c(OC)c(OC)c1OC`, for which the GI50 with RXF 393 was 44 µM (inactive); with MDA-MB-435, 21.5 µM (inactive); in the assay on EKVX it was 83.9 µM (inactive); in the assay with SF-268 it was > 100 µM (inactive); with UO-31, > 100 µM (inactive); in the assay on CAKI-1, > 100 µM (inactive). Besides, the GI50 with HOP-62 is > 100 µM (inactive); in the assay with UACC-62 it was > 100 µM (inactive); in the assay with MDA-N, 76.9 µM (inactive); in the assay on K562, > 100 µM (inactive); with MOLT-4, 91.4 µM (inactive); with A549 it was 49.3 µM (inactive). In addition, the GI50 with HOP-92 was > 100 µM (inactive); in the assay on SK-MEL-5, 74.5 µM (inactive); with SN12C, > 100 µM (inactive); in the assay with HCT-15, over 100 µM; in the assay with MCF7, 44.2 µM (inactive).

As for `COc1nc(C)nc2c1ncn2Cc1ccccc1`, the GI50 was > 100 µM (inactive) in the assay with RXF 393; > 100 µM (inactive) in the assay on MDA-MB-435; 80.7 µM (inactive) in the assay on EKVX; > 100 µM (inactive) in the assay on SK-MEL-28; 57.3 µM (inactive) with SF-268; 66.2 µM (inactive) in the assay with CAKI-1. Besides, the GI50 was > 100 µM (inactive) in the assay with HOP-62; > 100 µM (inactive) in the assay with UACC-62; > 100 µM (inactive) in the assay on MDA-N; > 100 µM (inactive) with K562; > 100 µM (inactive) in the assay with A549; < 0.01 µM (active) with HOP-92. Besides, the GI50 with SK-MEL-5 was > 100 µM (inactive); in the assay on NCI-H226, > 100 µM (inactive); with SN12C, > 100 µM (inactive); with HCT-15, over 100 µM; in the assay on MCF7, 58.9 µM (inactive).

`CCOC(=O)/C(=C\NC(N)=S)C(=O)c1ccccc1`: the GI50 with RXF 393, in the assay on MDA-MB-435, in the assay with EKVX, in the assay with SK-MEL-28, in the assay with SF-268 and with UO-31 was > 100 µM (inactive) throughout. Also, the GI50 in the assay on CAKI-1, in the assay on HOP-62, with UACC-62, in the assay with MDA-N, in the assay on MOLT-4 and in the assay with A549 was > 100 µM (inactive) each time. Moreover, the GI50 is > 100 µM (inactive) in the assay on HOP-92; > 100 µM (inactive) with SK-MEL-5; > 100 µM (inactive) in the assay with NCI-H226; > 100 µM (inactive) in the assay on SN12C; over 100 µM in the assay with HCT-15; > 100 µM (inactive) in the assay on MCF7.

As to `C=C(C)[C@@H]1CC[C@]2(CO)CC[C@]3(C)[C@H](CC[C@@H]4[C@@]5(C)CC[C@H](O)C(C)(C)[C@@H]5CC[C@]43C)[C@@H]12` [BETULIN], the GI50 was 10.3 µM (inactive) with RXF 393; 19.5 µM (inactive) in the assay with MDA-MB-435; 25.6 µM (inactive) in the assay with EKVX; 33.1 µM (inactive) with SK-MEL-28; 25.1 µM (inactive) in the assay with SF-268; 11.1 µM (inactive) in the assay on UO-31. For the same compound, the GI50 in the assay with CAKI-1 is 15.3 µM (inactive); with HOP-62, 16.7 µM (inactive); with MDA-N it was 45 µM (inactive); in the assay on K562 it was 15.8 µM (inactive); in the assay with MOLT-4 it was 32.4 µM (inactive); in the assay on A549, 9.35 µM (inactive). The GI50 with HOP-92 was 16.7 µM (inactive); with SK-MEL-5 it was 19.7 µM (inactive); with NCI-H226 it was 39 µM (inactive); in the assay with SN12C, 24.8 µM (inactive); in the assay with HCT-15 it was 42.6 µM; in the assay on MCF7, 19.9 µM (inactive).

`CCOC(=O)c1ccc(-c2onc(C)c2Br)[nH]1`: the GI50 is 21.4 µM (inactive) in the assay with RXF 393; 85.1 µM (inactive) with MDA-MB-435; 37 µM (inactive) with EKVX; > 100 µM (inactive) in the assay with SK-MEL-28; > 100 µM (inactive) in the assay with SF-268; 32.7 µM (inactive) with UO-31. Further, the GI50 with CAKI-1 was 50.8 µM (inactive); with HOP-62, 59.3 µM (inactive); in the assay on UACC-62 it was 56 µM (inactive); with MDA-N it was 66.4 µM (inactive); in the assay on K562 it was 80.2 µM (inactive); in the assay on MOLT-4 it was > 100 µM (inactive). For the same compound, the GI50 in the assay on A549 was 33 µM (inactive); in the assay on HOP-92, 23 µM (inactive); with SK-MEL-5, 41.3 µM (inactive); in the assay on HCT-15, 36.1 µM; in the assay on MCF7, 27.7 µM (inactive).
